Measurements published in US20180028601A1, “METHODS AND COMPOSITIONS FOR TREATING CANCER” (Yissum Research Development Company of The Hebrew …, priority 2016, published 2018).

Key:
[1] = system: high and intermediate Gal-GalNAc-expressing CRC cell lines (HCT116, CT26, RKO); assay: Flow cytometry attachment and GalNAc competition assays, high and intermediate Gal-GalNAc-expressing lines; type: cell-based, human and mouse; details: p=0.04167
Experimental: Flow Cytometry and Competition Assays—FITC-labeled F. nucleatum were incubated with cells at a MOI of 10 for 30 min at room temperature. FITC-labeled PNA lectin (Sigma-Aldrich) was incubated at a final concentration of 140 nM per 2.5×10^5 cells. For competition experiments, bacteria or PNA was incubated with GalNAc (concentration range 0, 50, 100, and 300 mM) for 30 min prior to incubation with cells. Flow cytometry methods and analysis are as described in Abed et al. 2016. ibid, Supplemental Experimental Procedures.

[2] = system: erythrocytes; assay: Hemagglutination assay; type: cell-based; details: bacteria preincubated with 25 mM GalNAc
Experimental: Hemagglutination Assays—Hemagglutination assays were performed as previously described (Coppenhagen-Glazer et al., 2015, ibid). For inhibition assays, washed bacteria were preincubated with 25 mM GalNAc (Sigma-Aldrich) for 30 min prior to incubation with erythrocytes.

[3] = system: human colon adenocarcinoma sections; assay: Binding of fluorescently labeled F. nucleatum to human colon tissue sections / TMA; details: 300 mM GalNAc
Experimental: Tissue Microarray Analysis—Colon cancer tissue array CO2601 (US Biomax) and array CO809a (US Biomax) were used in these studies. Details about the cases for each core on the array are available on the US Biomax Web site.
Immunofluorescence and Section Preparation—Fixed tissue sections were stained with H&E or processed for immunofluorescence microscopy. Sections were blocked and incubated with fluorescent PNA or fluorescent bacteria and imaging analysis are as described in Abed et al. 2016. ibid, Supplemental Experimental Procedures. GalNAc removal was performed by incubating sections with O-glycanase.; see Supplemental Experimental Procedures for experimental details.

CC(=O)N[C@H]1C(O)O[C@H](CO)[C@H](O)[C@@H]1O (stereo partly shown) [GalNAc]
inhibition of F. nucleatum ATCC 23726 binding to cells ([1]; GalNAc 0, 50, 100, 300 mM): inhibited by GalNAc in a statistically significant, dose-dependent manner | inhibition of CTI-2 binding to cells ([1]; soluble GalNAc 0-300 mM): inhibited by the addition of soluble GalNAc in a dose-dependent manner | inhibition of CTI-2 hemagglutination [2]: inhibited | inhibition of binding of F. nucleatum ATCC 23726 to human CRC tissue sections [3]: inhibits binding
